Results: ChEMBL document CHEMBL1212822, “Synthesis, fluorine-18 radiolabeling, and biological evaluation of N-((E)-4-fluorobut-2-en-1-yl)-2beta-carbomethoxy-3beta-(4'-halophenyl)nortropanes: candidate radioligands for in vivo imaging of the brain dopamine transporter with positron emission tomography” (J Med Chem, 2010)

What was measured:
[1] = molecular target: Sodium-dependent dopamine transporter (Homo sapiens, UniProt Q01959)
[2] = molecular target: Sodium-dependent serotonin transporter (Homo sapiens, UniProt P31645)
Sequence of Sodium-dependent serotonin transporter (P31645 whole entry): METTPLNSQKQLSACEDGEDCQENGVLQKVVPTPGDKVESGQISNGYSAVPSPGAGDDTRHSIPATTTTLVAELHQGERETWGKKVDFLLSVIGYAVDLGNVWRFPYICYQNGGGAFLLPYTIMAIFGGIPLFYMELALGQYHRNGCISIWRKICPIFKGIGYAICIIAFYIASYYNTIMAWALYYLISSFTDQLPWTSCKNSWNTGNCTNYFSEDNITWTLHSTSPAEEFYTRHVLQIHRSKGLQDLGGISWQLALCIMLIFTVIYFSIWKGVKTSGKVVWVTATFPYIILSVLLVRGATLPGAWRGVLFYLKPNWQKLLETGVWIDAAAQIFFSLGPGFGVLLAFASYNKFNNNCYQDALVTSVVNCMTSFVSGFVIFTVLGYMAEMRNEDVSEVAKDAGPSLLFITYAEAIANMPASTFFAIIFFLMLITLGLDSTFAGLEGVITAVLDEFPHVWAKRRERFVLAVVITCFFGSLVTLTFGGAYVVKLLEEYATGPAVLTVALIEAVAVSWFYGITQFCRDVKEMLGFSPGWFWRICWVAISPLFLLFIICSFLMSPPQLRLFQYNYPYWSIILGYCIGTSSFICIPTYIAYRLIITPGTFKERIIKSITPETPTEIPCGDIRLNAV

[3] = molecular target: Sodium-dependent noradrenaline transporter (Homo sapiens, UniProt P23975)
Sequence of Sodium-dependent noradrenaline transporter (P23975 whole entry): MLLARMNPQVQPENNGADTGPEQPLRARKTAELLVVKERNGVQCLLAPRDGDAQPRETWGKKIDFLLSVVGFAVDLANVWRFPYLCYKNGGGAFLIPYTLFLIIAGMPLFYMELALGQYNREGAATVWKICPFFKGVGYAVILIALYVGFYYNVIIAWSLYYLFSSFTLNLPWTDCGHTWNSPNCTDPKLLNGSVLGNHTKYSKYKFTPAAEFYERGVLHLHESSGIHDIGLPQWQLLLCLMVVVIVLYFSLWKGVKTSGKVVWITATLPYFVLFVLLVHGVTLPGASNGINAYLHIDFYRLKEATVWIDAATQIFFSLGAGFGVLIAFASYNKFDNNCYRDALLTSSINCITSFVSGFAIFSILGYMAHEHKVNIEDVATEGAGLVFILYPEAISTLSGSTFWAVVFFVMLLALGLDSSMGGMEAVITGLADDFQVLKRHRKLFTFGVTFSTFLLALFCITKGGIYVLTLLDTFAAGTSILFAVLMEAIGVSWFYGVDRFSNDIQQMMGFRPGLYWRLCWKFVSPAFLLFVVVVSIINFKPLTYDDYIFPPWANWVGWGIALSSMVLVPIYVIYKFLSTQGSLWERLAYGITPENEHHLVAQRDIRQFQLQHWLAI
Description: Displacement of [3H]nisoxetine from human NET

Sequence of Sodium-dependent dopamine transporter (Q01959 whole entry): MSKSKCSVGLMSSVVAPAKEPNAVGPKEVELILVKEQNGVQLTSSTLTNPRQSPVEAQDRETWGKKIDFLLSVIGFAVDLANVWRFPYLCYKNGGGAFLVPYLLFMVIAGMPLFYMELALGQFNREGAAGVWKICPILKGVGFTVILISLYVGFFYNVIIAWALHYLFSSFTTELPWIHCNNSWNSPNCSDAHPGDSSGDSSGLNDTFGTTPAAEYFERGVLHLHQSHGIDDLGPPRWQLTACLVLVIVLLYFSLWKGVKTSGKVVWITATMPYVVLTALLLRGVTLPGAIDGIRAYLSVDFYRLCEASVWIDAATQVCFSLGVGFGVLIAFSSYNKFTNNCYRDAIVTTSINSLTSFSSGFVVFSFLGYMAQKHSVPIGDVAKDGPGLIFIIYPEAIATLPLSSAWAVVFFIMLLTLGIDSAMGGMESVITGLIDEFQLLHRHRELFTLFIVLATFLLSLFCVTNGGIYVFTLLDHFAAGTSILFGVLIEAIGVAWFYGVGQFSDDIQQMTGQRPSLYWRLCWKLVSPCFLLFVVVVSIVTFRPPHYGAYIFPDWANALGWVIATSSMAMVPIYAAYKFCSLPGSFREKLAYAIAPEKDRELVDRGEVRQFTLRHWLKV

SMILES | Ki [1] [nM] | Ki [2] [nM] | Ki [3] [nM]
COC(=O)[C@@H]1C2CCC(C[C@@H]1c1ccc(F)cc1)N2C/C=C/CF (stereo partly drawn) | 9.5 |  | 
COC(=O)[C@@H]1C2CCC(C[C@@H]1c1ccc(Br)cc1)N2C/C=C/CF (stereo partly drawn) |  | 8.5 | 87
COC(=O)[C@@H]1C2CCC(C[C@@H]1c1ccc(C)cc1)N2C/C=C/CF (stereo partly drawn) | 2.7 | 147 | 265
COC(=O)[C@@H]1C2CCC(C[C@@H]1c1ccc(I)cc1)N2C/C=C/CF (stereo partly drawn) | 0.5 | 2.2 | 
